Patent publication US20220323455A1, “FUSED HETEROCYCLIC DERIVATIVES AS ANTIVIRAL AGENTS” (priority 2019, published 2022)

The compounds below were run on HBV (assay: HBV replication inhibition assay (BDNA assay) in HepG2.2.15 cells). Settings: 6 days, encapsidated HBV DNA in supernatant.
Assay type: cell-based, Hepatitis B virus
How it was run: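 HepG2.2.15 cells were dosed with serially diluted compound (0.5% DMSO), with compound and medium renewed at day 3. Day-6 supernatants were DNase-treated and proteinase K-lysed, and encapsidated HBV DNA was quantified by branched-DNA assay. Percent inhibition was set against DMSO controls and EC50 obtained by nonlinear fit.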
In the case of `C[C@@H]1Cc2nn3c(c2CN1C(=O)Nc1ccnc(C(F)F)c1F)C(F)(F)CC(O)CC3` (single isomer, unassigned) [Example 122, (3R,9R*)—N-(2-(Difluoromethyl)-3-fluoropyridin-4-yl)-11,11-difluoro-9-hydroxy-3-methyl-3,4,8,9,10,11-hexahydro-1H-pyrido[4′,3′:3,4]pyrazolo[1,5-a]azepine-2(7H)-carboxamide], the EC50 is reported as 2 nM.
`CCC1(O)CCC(F)(F)c2c3c(nn2C1)CCN(C(=O)Nc1ccc(F)c(C#N)c1)C3` (single isomer, unassigned) [Example 62, (R*)—N-(3-Cyano-4-fluorophenyl)-8-ethyl-11,11-difluoro-8-hydroxy-3,4,8,9,10,11-hexahydro-1H-pyrido[4′,3′:3,4]pyrazolo[1,5-a]azepine-2(7H)-carboxamide] gave an EC50 of 42 nM.
Compound `O=C(Nc1ccnc(C(F)F)c1F)N1CCc2nn3c(c2C1)C(F)(F)CC(O)CC3` (single isomer, unassigned) [Example 142, (S*)—N-(2-(Difluoromethyl)-3-fluoropyridin-4-yl)-11,11-difluoro-9-hydroxy-3,4,8,9,10,11-hexahydro-1H-pyrido[4′,3′:3,4]pyrazolo[1,5-a]azepine-2(7H)-carboxamide] has an EC50 of 46 nM.
`O=C(Nc1ccnc(Br)c1F)N1CCc2nn3c(c2C1)C(F)(F)CC(O)CC3` (single isomer, unassigned) [Example 140, (S*)—N-(2-Bromo-3-fluoropyridin-4-yl)-11,11-difluoro-9-hydroxy-3,4,8,9,10,11-hexahydro-1H-pyrido[4′,3′:3,4]pyrazolo[1,5-a]azepine-2(7H)-carboxamide] was tested, and the EC50 was 27 nM.
`COC(=O)NCC1CCC(F)(F)c2c3c(nn2C1)C[C@@H](C)N(C(=O)Nc1ccnc(C(F)F)c1F)C3` (single isomer, unassigned) [Example 107, Methyl (((3R,8R*)-2-((2-(difluoromethyl)-3-fluoropyridin-4-yl)carbamoyl)-11,11-difluoro-3-methyl-2,3,4,7,8,9,10,11-octahydro-1H-pyrido[4′,3′:3,4]pyrazolo[1,5-a]azepin-8-yl)methyl)carbamate] was tested, and the EC50 was 8 nM.
For `O=C(Nc1ccnc(Br)c1F)N1CCc2nn3c(c2C1)C(F)(F)CC(O)CC3` (single isomer, unassigned) [Example 137, (R*)—N-(2-Bromo-3-fluoropyridin-4-yl)-11,11-difluoro-9-hydroxy-3,4,8,9,10,11-hexahydro-1H-pyrido[4′,3′:3,4]pyrazolo[1,5-a]azepine-2(7H)-carboxamide], the EC50 was 2 nM.
`COC(=O)NCC1CCC(F)(F)c2c3c(nn2C1)C[C@@H](C)N(C(=O)Nc1ccnc(C(F)F)c1F)C3` (single isomer, unassigned) [Example 110, Methyl (((3R,8S*)-2-((2-(difluoromethyl)-3-fluoropyridin-4-yl)carbamoyl)-11,11-difluoro-3-methyl-2,3,4,7,8,9,10,11-octahydro-1H-pyrido[4′,3′:3,4]pyrazolo[1,5-a]azepin-8-yl)methyl)carbamate] showed an EC50 of 18 nM.
`C[C@@H]1Cc2nn3c(c2CN1C(=O)Nc1ccnc(C(F)F)c1F)C(F)(F)CCC(CO)C3` (single isomer, unassigned) [Example 82, (3R,8R*)—N-(2-(Difluoromethyl)-3-fluoropyridin-4-yl)-11,11-difluoro-8-(hydroxymethyl)-3-methyl-3,4,8,9,10,11-hexahydro-1H-pyrido[4′,3′:3,4]pyrazolo[1,5-a]azepine-2(7H)-carboxamide] was tested, and the EC50 was 1 nM.
`C[C@@H]1Cc2nn3c(c2CN1C(=O)Nc1ccnc(Br)c1F)C(F)(F)CCC(CO)C3` (single isomer, unassigned) [Example 77, (3R,8S*)—N-(2-Bromo-3-fluoropyridin-4-yl)-11,11-difluoro-8-(hydroxymethyl)-3-methyl-3,4,8,9,10,11-hexahydro-1H-pyrido[4′,3′:3,4]pyrazolo[1,5-a]azepine-2(7H)-carboxamide] showed an EC50 of 14 nM.
In the case of `C[C@@H]1Cc2nn3c(c2CN1C(=O)Nc1ccc(F)c(C#N)c1)C(F)(F)CCC(F)(CO)C3` (single isomer, unassigned) [Example 114, (3R,8R*)—N-(3-Cyano-4-fluorophenyl)-8,11,11-trifluoro-8-(hydroxylmethyl)-3-methyl-3,4,8,9,10,11-hexahydro-1H-pyrido[4′,3′:3,4]pyrazolo[1,5-a]azepine-2(7H)-carboxamide], the EC50 is reported as 1 nM.
For `C[C@@H]1Cc2nn3c(c2CN1C(=O)Nc1ccnc(Br)c1F)C(F)(F)CCC(O)(CF)C3` (single isomer, unassigned) [Example 87, (3R,8S*)—N-(2-Bromo-3-fluoropyridin-4-yl)-11,11-difluoro-8-(fluoromethyl)-8-hydroxy-3-methyl-3,4,8,9,10,11-hexahydro-1H-pyrido[4′,3′:3,4]pyrazolo[1,5-a]azepine-2(7H)-carboxamide], the EC50 was 39 nM.
`N#Cc1cc(NC(=O)N2CCc3nn4c(c3C2)C(F)(F)CC(O)CC4)ccc1F` (single isomer, unassigned) [Example 138, (R*)—N-(3-Cyano-4-fluorophenyl)-11,11-difluoro-9-hydroxy-3,4,8,9,10,11-hexahydro-1H-pyrido[4′,3′:3,4]pyrazolo[1,5-a]azepine-2(7H)-carboxamide] gave an EC50 of 1 nM.
Compound `N#Cc1cc(NC(=O)N2CCc3nn4c(c3C2)C(F)(F)CCC(O)(COCC(F)F)C4)ccc1F` (single isomer, unassigned) [Example 34, (S*)—N-(3-Cyano-4-fluorophenyl)-8-((2,2-difluoroethoxy)methyl)-11,11-difluoro-8-hydroxy-3,4,8,9,10,11-hexahydro-1H-pyrido[4′,3′:3,4]pyrazolo[1,5-a]azepine-2(7H)-carboxamide] has an EC50 of 17 nM.
In the case of `C[C@@H]1Cc2nn3c(c2CN1C(=O)Nc1ccnc(Br)c1F)C(F)=CC(O)CC3` (single isomer, unassigned) [Example 124, (3R,9S*)—N-(2-Bromo-3-fluoropyridin-4-yl)-11-fluoro-9-hydroxy-3-methyl-3,4,8,9-tetrahydro-1H-pyrido[4′,3:3,4]pyrazolo[1,5-a]azepine-2(7H)-carboxamide], the EC50 is reported as 26 nM.
Work on `O=C(Nc1ccnc(C(F)F)c1F)N1CCc2nn3c(c2C1)C(F)(F)CC(O)CC3` (single isomer, unassigned) [Example 139, (R*)—N-(2-(Difluoromethyl)-3-fluoropyridin-4-yl)-11,11-difluoro-9-hydroxy-3,4,8,9,10,11-hexahydro-1H-pyrido[4′,3′:3,4]pyrazolo[1,5-a]azepine-2(7H)-carboxamide] yielded an EC50 of 21 nM.
`C[C@@H]1Cc2nn3c(c2CN1C(=O)Nc1ccnc(Br)c1F)C(F)(F)CCC(CO)C3` (single isomer, unassigned) [Example 81, (3R,8R*)—N-(2-Bromo-3-fluoropyridin-4-yl)-11,11-difluoro-8-(hydroxymethyl)-3-methyl-3,4,8,9,10,11-hexahydro-1H-pyrido[4′,3′:3,4]pyrazolo[1,5-a]azepine-2(7H)-carboxamide] was tested, and the EC50 was 2 nM.
With `C[C@@H]1Cc2nn3c(c2CN1C(=O)Nc1ccc(F)c(C#N)c1)C(F)(F)CCC(F)(CO)C3` (single isomer, unassigned) [Example 111, (3R,8S*)—N-(3-Cyano-4-fluorophenyl)-8,11,11-trifluoro-8-(hydroxymethyl)-3-methyl-3,4,8,9,10,11-hexahydro-1H-pyrido[4′,3′:3,4]pyrazolo[1,5-a]azepine-2(7H)-carboxamide] the EC50 was 7 nM.
`C[C@@H]1Cc2nn3c(c2CN1C(=O)Nc1ccnc(Br)c1F)C(F)(F)CCC(O)(CC#N)C3` (single isomer, unassigned) [Example 91, (3R,8R*)—N-(2-Bromo-3-fluoropyridin-4-yl)-8-(cyanomethyl)-11,11-difluoro-8-hydroxy-3-methyl-3,4,8,9,10,11-hexahydro-1H-pyrido[4′,3′:3,4]pyrazolo[1,5-a]azepine-2(7H)-carboxamide] gave an EC50 of 30 nM.
Compound `C[C@@H]1Cc2nn3c(c2CN1C(=O)Nc1ccc(F)c(C#N)c1)C(F)(F)CC(O)(CO)CC3` (single isomer, unassigned) [Example 125, (3R,9R*)—N-(3-Cyano-4-fluorophenyl)-11,11-difluoro-9-hydroxy-9-(hydroxymethyl)-3-methyl-3,4,8,9,10,11-hexahydro-1H-pyrido[4′,3′:3,4]pyrazolo[1,5-a]azepine-2(7H)-carboxamide] has an EC50 of 14 nM.
For `C[C@@H]1Cc2nn3c(c2CN1C(=O)Nc1ccnc(C(F)F)c1F)C(F)(F)CCC(F)(CO)C3` (single isomer, unassigned) [Example 116, (3R,8R*)—N-(2-(Difluoromethyl)-3-fluoropyridin-4-yl)-8,11,11-trifluoro-8-(hydroxymethyl)-3-methyl-3,4,8,9,10,11-hexahydro-1H-pyrido[4′,3′:3,4]pyrazolo[1,5-a]azepine-2(7H)-carboxamide], the EC50 was 10 nM.
`O=C(Nc1ccc(F)c(C(F)(F)F)c1)N1CCc2nn3c(c2C1)C(F)(F)CCC(CO)C3` (single isomer, unassigned) [Example 24, (R*)-11,11-Difluoro-N-(4-fluoro-3-(trifluoromethyl)phenyl)-8-(hydroxymethyl)-3,4,8,91011-hexahydro-1H-pyrido[4′,3′:3,4]pyrazolo[1,5-a]azepine-2(7H)-carboxamide] gave an EC50 of 35 nM.
For `N#Cc1cc(NC(=O)N2CCc3nn4c(c3C2)C(F)(F)CC(CO)CC4)ccc1F` (single isomer, unassigned) [Example 136, (R*)—N-(3-Cyano-4-fluorophenyl)-11,11-difluoro-9-(hydroxymethyl) -3,4,8,9,10,11-hexahydro-1H-pyrido[4′,3′:3,4]pyrazolo[1,5-a]azepine-2(7H)-carboxamide], the EC50 was 5 nM.

Same assay, conditions: Hepatitis B virus, HepG2.2.15, 144 h, 6 days, encapsidated HBV DNA in supernatant
In the case of `C#CC1(O)CCC(F)(F)c2c3c(nn2C1)CCN(C(=O)Nc1ccnc(C(F)F)c1F)C3` (single isomer, unassigned) [Example 64, (R*)—N-(2-(Difluoromethyl)-3-fluoropyridin-4-yl)-8-ethynyl-11,11-difluoro-8-hydroxy-3,4,89,10,11-hexahydro-1H-pyrido[4′,3′:3,4]pyrazolo[1,5-a]azepine-2(7H)-carboxamide], the EC50 is reported as 143 nM.
